Assay results as given in PMC4833812, “Incorporation of tryptophan analogues into the lantibiotic nisin” (Amino Acids, 2016).

What was measured:
[1] = Retention time in reverse phase chromatography (HPLC); assay type: physicochemical; settings: reverse phase HPLC as described previously (Zhou et al. 2015); used by the paper to reflect changed hydrophobicity/polarity of the variants
Method: To obtain pure peptides for activity tests, the supernatant of 100 ml culture (filtered with 0.2 µm filter, Millipore) was first incubated with 5 ml supernatant of NisP (filtered) at 30 °C for 1 h to cut off the leader part and then purified with cation-ion exchange (HiTrap SP FF, GE healthcare) (van Heel et al. [2013]). The elutions were further loaded on a C18 column (Spherical C18, Sigma- Aldrich). The column was washed and eluted with different concentrations of solution B (solution A, milliQ with 0.1 % TFA; solution B, isopropanol: acetonitrile (2:1) with 0.1 % TFA). The elutions which were active against L. lactis were freeze-dried and further purified with HPLC as described previously (Zhou et al. [2015]). The fractions containing the peaks in the HPLC chromatogram were analysed by activity tests and MALDI-TOF (van Heel et al. [2013]). The peak which was active and contained the pure peptide with right mass was freeze-dried and quantified with HPLC as described previously (Zhou et al. [2015]).
Nisin is a positively charged and hydrophobic molecule. […] This difference was reflected by the elution time of the peptides in cation-ion exchange and reverse phase chromatography (HPLC). The variants with 5HW were eluted about half column volume earlier than other variants during cation-ion exchange (data not shown).

L. lactis MG1363 = assay: MIC test against indicator strain L. lactis MG1363; assay type: cell-based, Lactococcus lactis; settings: for Change of antimicrobial activity, in words: I1 variants compared to I1W, I4 variant compared to nisin
Method: The indicator strain L. lactis MG1363 was first streaked on a GM17 plate and cultured overnight. Before testing the MIC, three to five colonies were picked and cultured with GM17 medium until OD600 reached 0.5. The culture was diluted 500 times with GM17 and mixed with the same volume of peptides dissolved in GM17. The MIC value test was performed according to Wiegand et al. ([2008]).

Micrococcus flavus = settings: ref Kuipers et al. 1995; Demel et al. 1996; Van Kraaij et al. 1997; Breukink et al. 1998; cited from earlier work
Excerpt: (§1) The first two rings of nisin can bind to lipid II which is essential for cell wall synthesis. The C-terminus of nisin can insert into the membrane enabling pore formation (Breukink and de Kruijff [2006]). Mutagenesis of nisin has been conducted extensively and several residues have been mutated to tryptophan, e.g. I1W, M17W and V32W, which all reduce nisin activity but not dramatically, against Micrococcus flavus by two to three times and against Streptococcus thermophilus by three to eigh ... || The first two rings of nisin can bind to lipid II by forming a pyrophosphate cage (Hsu et al. [2004]).

[2] = tested on: Streptococcus thermophilus; settings: ref Kuipers et al. 1995; Demel et al. 1996; Van Kraaij et al. 1997; Breukink et al. 1998; cited from earlier work
Excerpt: as §1

Row | SMILES | Retention time of HPLC [1] [min] | Reduction of antimicrobial activity compared to I1W (L. lactis MG1363; from MIC values) | Reduction of antimicrobial activity compared to nisin (L. lactis MG1363; from MIC values) | Reduction of nisin activity against Micrococcus flavus (Micrococcus flavus) | Reduction of nisin activity against Streptococcus thermophilus [2] | Change of antimicrobial activity, in words (L. lactis MG1363; listed as 5FW analogue of I1W) | Change of antimicrobial activity, in words (L. lactis MG1363; listed as 5FW labelled I1W)
1 | C=C(NC(=O)[C@@H](NC(=O)[C@H](Cc1c[nH]cn1)NC(=O)[C@@H](NC(=O)[C@H](CO)NC(=O)[C@@H]1CS[C@@H](C)[C@H]2NC(=O)[C@H](C)NC(=O)[C@H](NC(=O)[C@H](CCCCN)NC(=O)[C@H](CCSC)NC(=O)[C@H](CC(N)=O)NC(=O)[C@@H]3CS[C@@H](C)[C@@H](NC(=O)[C@H](CCCCN)NC(=O)[C@@H]4CS[C@@H](C)[C@@H](NC(=O)[C@@H]5CSC[C@@H](NC(=O)/C(=C/C)NC(=O)[C@@H](N)Cc6c[nH]c7ccc(O)cc67)C(=O)N[C@@H]([C@@H](C)CC)C(=O)NC(=C)C(=O)N[C@@H](CC(C)C)C(=O)N5)C(=O)N5CCC[C@H]5C(=O)NCC(=O)N4)C(=O)NCC(=O)N[C@@H](C)C(=O)N[C@@H](CC(C)C)C(=O)N[C@@H](CCSC)C(=O)NCC(=O)N3)[C@H](C)SC[C@H](NC2=O)C(=O)N[C@@H](Cc2c[nH]cn2)C(=O)N1)[C@@H](C)CC)C(C)C)C(=O)N[C@@H](CCCCN)C(=O)O [I1-5HW] | 35.0 | two | four | – | – | – | –
2 | C=C(NC(=O)[C@@H](NC(=O)[C@H](Cc1c[nH]cn1)NC(=O)[C@@H](NC(=O)[C@H](CO)NC(=O)[C@@H]1CS[C@@H](C)[C@H]2NC(=O)[C@H](C)NC(=O)[C@H](NC(=O)[C@H](CCCCN)NC(=O)[C@H](CCSC)NC(=O)[C@H](CC(N)=O)NC(=O)[C@@H]3CS[C@@H](C)[C@@H](NC(=O)[C@H](CCCCN)NC(=O)[C@@H]4CS[C@@H](C)[C@@H](NC(=O)[C@@H]5CSC[C@@H](NC(=O)/C(=C/C)NC(=O)[C@@H](N)Cc6c[nH]c7ccccc67)C(=O)N[C@@H]([C@@H](C)CC)C(=O)NC(=C)C(=O)N[C@@H](CC(C)C)C(=O)N5)C(=O)N5CCC[C@H]5C(=O)NCC(=O)N4)C(=O)NCC(=O)N[C@@H](C)C(=O)N[C@@H](CC(C)C)C(=O)N[C@@H](CCSC)C(=O)NCC(=O)N3)[C@H](C)SC[C@H](NC2=O)C(=O)N[C@@H](Cc2c[nH]cn2)C(=O)N1)[C@@H](C)CC)C(C)C)C(=O)N[C@@H](CCCCN)C(=O)O [I1-W] | 38.0 | – | two | two to three | three to eight | – | –
3 | C=C(NC(=O)[C@@H](NC(=O)[C@H](Cc1c[nH]cn1)NC(=O)[C@@H](NC(=O)[C@H](CO)NC(=O)[C@@H]1CS[C@@H](C)[C@H]2NC(=O)[C@H](C)NC(=O)[C@H](NC(=O)[C@H](CCCCN)NC(=O)[C@H](CCSC)NC(=O)[C@H](CC(N)=O)NC(=O)[C@@H]3CS[C@@H](C)[C@@H](NC(=O)[C@H](CCCCN)NC(=O)[C@@H]4CS[C@@H](C)[C@@H](NC(=O)[C@@H]5CSC[C@@H](NC(=O)/C(=C/C)NC(=O)[C@@H](N)Cc6c[nH]c7ccc(F)cc67)C(=O)N[C@@H]([C@@H](C)CC)C(=O)NC(=C)C(=O)N[C@@H](CC(C)C)C(=O)N5)C(=O)N5CCC[C@H]5C(=O)NCC(=O)N4)C(=O)NCC(=O)N[C@@H](C)C(=O)N[C@@H](CC(C)C)C(=O)N[C@@H](CCSC)C(=O)NCC(=O)N3)[C@H](C)SC[C@H](NC2=O)C(=O)N[C@@H](Cc2c[nH]cn2)C(=O)N1)[C@@H](C)CC)C(C)C)C(=O)N[C@@H](CCCCN)C(=O)O [I1-5FW] | 38.9 | – | two | – | – | did not change the activity | the same activity
4 | C=C(NC(=O)[C@@H](NC(=O)[C@H](Cc1c[nH]cn1)NC(=O)[C@@H](NC(=O)[C@H](CO)NC(=O)[C@@H]1CS[C@@H](C)[C@H]2NC(=O)[C@H](C)NC(=O)[C@H](NC(=O)[C@H](CCCCN)NC(=O)[C@H](CCSC)NC(=O)[C@H](CC(N)=O)NC(=O)[C@@H]3CS[C@@H](C)[C@@H](NC(=O)[C@H](CCCCN)NC(=O)[C@@H]4CS[C@@H](C)[C@@H](NC(=O)[C@@H]5CSC[C@@H](NC(=O)/C(=C/C)NC(=O)[C@@H](N)[C@@H](C)CC)C(=O)N[C@@H]([C@@H](C)CC)C(=O)NC(=C)C(=O)N[C@@H](CC(C)C)C(=O)N5)C(=O)N5CCC[C@H]5C(=O)NCC(=O)N4)C(=O)NCC(=O)N[C@@H](C)C(=O)N[C@@H](CC(C)C)C(=O)N[C@@H](Cc4c[nH]c5ccccc45)C(=O)NCC(=O)N3)[C@H](C)SC[C@H](NC2=O)C(=O)N[C@@H](Cc2c[nH]cn2)C(=O)N1)[C@@H](C)CC)C(C)C)C(=O)N[C@@H](CCCCN)C(=O)O [M17-W] | 38.5 | – | 32 times | two to three | three to eight | – | –
5 | C=C(NC(=O)[C@@H](NC(=O)[C@H](Cc1c[nH]cn1)NC(=O)[C@@H](NC(=O)[C@H](CO)NC(=O)[C@@H]1CS[C@@H](C)[C@H]2NC(=O)[C@H](C)NC(=O)[C@H](NC(=O)[C@H](CCCCN)NC(=O)[C@H](CCSC)NC(=O)[C@H](CC(N)=O)NC(=O)[C@@H]3CS[C@@H](C)[C@@H](NC(=O)[C@H](CCCCN)NC(=O)[C@@H]4CS[C@@H](C)[C@@H](NC(=O)[C@@H]5CSC[C@@H](NC(=O)/C(=C/C)NC(=O)[C@@H](N)[C@@H](C)CC)C(=O)N[C@@H]([C@@H](C)CC)C(=O)NC(=C)C(=O)N[C@@H](CC(C)C)C(=O)N5)C(=O)N5CCC[C@H]5C(=O)NCC(=O)N4)C(=O)NCC(=O)N[C@@H](C)C(=O)N[C@@H](CC(C)C)C(=O)N[C@@H](Cc4c[nH]c5ccc(O)cc45)C(=O)NCC(=O)N3)[C@H](C)SC[C@H](NC2=O)C(=O)N[C@@H](Cc2c[nH]cn2)C(=O)N1)[C@@H](C)CC)C(C)C)C(=O)N[C@@H](CCCCN)C(=O)O [M17-5HW] | 37.2 | – | 32 times | – | – | – | –
